What was measured:
Format in all cases: functional, cell-based
MCF7 = test: Cytotoxicity against human MCF7 cells assessed as cell viability after 72 hrs by MTT assay; settings: MCF7, 72 h
HeLa = test: Cytotoxicity against human HeLa cells assessed as cell viability after 72 hrs by MTT assay
Bel-7402 = test: Cytotoxicity against human Bel7402 cells assessed as cell viability after 72 hrs by MTT assay; settings: Bel-7402, 72 h
A549 = test: Cytotoxicity against human A549 cells assessed as cell viability after 72 hrs by MTT assay; settings: A549, 72 h
KB = test: Cytotoxicity against human KB cells assessed as cell viability after 72 hrs by MTT assay
[1] = Cytotoxicity against human HELF cells assessed as cell viability after 72 hrs by MTT assay
KETR3 = test: Cytotoxicity against human Ketr3 cells assessed as cell viability after 72 hrs by MTT assay; settings: KETR3, 72 h
HCT-8 = test: Cytotoxicity against human HCT8 cells assessed as cell viability after 72 hrs by MTT assay; settings: HCT-8, 72 h
[2] = Cytotoxicity against human BGC803 cells assessed as cell viability after 72 hrs by MTT assay; settings: BGC803, 72 h
A2780 = test: Cytotoxicity against human A2780 cells assessed as cell viability after 72 hrs by MTT assay; settings: A2780, 72 h

SMILES	IC50 (MCF7)	IC50 (HeLa)	IC50 (Bel-7402)	IC50 (A549)	IC50 (KB)	IC50 [1]	IC50 (KETR3)	IC50 (HCT-8)	IC50 [2]	IC50 (A2780)
COC1=C(C)C(=O)C2=C(C1=O)[C@@H]1[C@@H]3CC4=C(C(=O)C(OC)=C(C)C4=O)[C@H](CNC(=O)/C=C/c4ccc(C(C)(C)C)cc4)N3[C@@H](C#N)[C@H](C2)N1C	25.6 nM	31.2 nM	> 100 nM	> 100 nM	26.3 nM	> 100 nM	> 100 nM	> 100 nM	31 nM	
COC1=C(C)C(=O)C2=C(C1=O)[C@@H]1[C@@H]3CC4=C(C(=O)C(OC)=C(C)C4=O)[C@H](CNC(=O)c4ccc5c(c4)OCO5)N3[C@@H](C#N)[C@H](C2)N1C	4.79 nM	3.34 nM	2.02 nM	69 nM	3.94 nM	2.18 nM	6.88 nM	21.1 nM	20 nM	5.11 nM
COC1=C(C)C(=O)C2=C(C1=O)[C@@H]1[C@@H]3CC4=C(C(=O)C(OC)=C(C)C4=O)[C@H](CNC(=O)c4cccc(C(F)(F)F)c4)N3[C@@H](C#N)[C@H](C2)N1C	26.1 nM	43.2 nM	21 nM	> 100 nM	53.9 nM	25.7 nM	30.6 nM	> 100 nM	58.5 nM	47.1 nM
COC1=C(C)C(=O)C2=C(C1=O)[C@@H]1[C@@H]3CC4=C(C(=O)C(OC)=C(C)C4=O)[C@H](CNC(=O)C(C)=O)N3[C@@H](C#N)[C@H](C2)N1C [SAFRAMYCIN A]	6.39 nM	1.06 nM	1.83 nM	40.4 nM	2.23 nM	2.54 nM	9.56 nM	2.49 nM	11 nM	2.75 nM
COC1=C(C)C(=O)C2=C(C1=O)[C@@H]1[C@@H]3CC4=C(C(=O)C(OC)=C(C)C4=O)[C@H](CNC(=O)/C=C/c4ccc(OC)cc4)N3[C@@H](C#N)[C@H](C2)N1C	5.35 nM	7.77 nM	6.23 nM	23.8 nM	9.04 nM	4.88 nM	11 nM	46.7 nM	6.91 nM	14.4 nM
COC1=C(C)C(=O)C2=C(C1=O)[C@@H]1[C@@H]3CC4=C(C(=O)C(OC)=C(C)C4=O)[C@H](CNC(=O)CNC(=O)c4ccccc4)N3[C@@H](C#N)[C@H](C2)N1C	39.5 nM	10.7 nM	22.4 nM	10 nM	16.9 nM	16.7 nM	23.6 nM	58.5 nM	27.7 nM	43.9 nM
COC1=C(C)C(=O)C2=C(C1=O)[C@@H]1[C@@H]3CC4=C(C(=O)C(OC)=C(C)C4=O)[C@H](CNC(=O)/C=C/c4ccnc5ccccc45)N3[C@@H](C#N)[C@H](C2)N1C	2.23 nM	8.33 nM	18.2 nM	35.7 nM	5.7 nM	23.4 nM	11.5 nM	18.2 nM	17.1 nM	17.5 nM
COC1=C(C)C(=O)C2=C(C1=O)[C@@H]1[C@@H]3CC4=C(C(=O)C(OC)=C(C)C4=O)[C@H](CNC(=O)c4cc(Br)ccc4Cl)N3[C@@H](C#N)[C@H](C2)N1C		> 100 nM						> 100 nM	66.2 nM	
COC1=C(C)C(=O)C2=C(C1=O)[C@@H]1[C@@H]3CC4=C(C(=O)C(OC)=C(C)C4=O)[C@H](CNC(=O)OC(C)(C)C)N3[C@@H](C#N)[C@H](C2)N1C	8.89 nM	7.41 nM	5.38 nM	34.3 nM	29.4 nM	18.4 nM	12.9 nM	> 100 nM	66.2 nM	22.7 nM
COC1=C(C)C(=O)C2=C(C1=O)[C@@H]1[C@@H]3CC4=C(C(=O)C(OC)=C(C)C4=O)[C@H](CNC(=O)c4ccc5ccccc5n4)N3[C@@H](C#N)[C@H](C2)N1C	14.9 nM	9.51 nM	23.7 nM	65.3 nM	16.6 nM	19.8 nM	69.9 nM	43.4 nM	21.5 nM	29.6 nM

Source: ChEMBL document CHEMBL1944637, “Asymmetric synthesis and cytotoxicity of (-)-saframycin A analogues” (Eur J Med Chem, 2012)
